In general, pIC50 refers to −log10 of the IC50, conventionally taken in molar units.

Among the data in patent US9174939B2, “Soft rock inhibitors” (Amakem NV, priority 2011, dated 2015) are IC50 and half-life values, retold here.

In one data set the target is ROCK II (Homo sapiens, UniProt O75116). Description: Kinase inhibition (ROCKI or ROCKII), 33P-ATP filter assay. It is filed as biochemical. The following applies: 120 min at room temperature. The method, then:
C.1.1. Kinase inhibition (ROCKI or ROCKII)
Base Reaction buffer; 20 mM Hepes (pH 7.5), 10 mM MgCl2, 1 mM EGTA, 0.02% Brij35, 0.02 mg/ml BSA, 0.1 mM Na3VO4, 2 mM DTT, 1% DMSO—Required cofactors are added individually to each kinase reaction • Reaction Procedure: • 1. Prepare indicated substrate in freshly prepared Base Reaction Buffer • 2. Deliver any required cofactors to the substrate solution above • 3. Deliver indicated kinase into the substrate solution and gently mix • 4. Deliver compounds in DMSO into the kinase reaction mixture • 5. Deliver ^33P-ATP (specific activity 0.01 μCi/μl final) into the reaction mixture to initiate the reaction. • 6. […] Wash filters extensively in 0.1% Phosphoric acid.

Data set [1] concerns MLC-T18/S19 phosphorylation by endogenous ROCK in A7r5 cells. Description: Myosin Light Chain Phosphorylation assay (ELISA, A7r5 cells). As to conditions: A7r5 rat smooth muscle cells, serum-free medium, phospho-MLC-T18/S19 ELISA. It is filed as cell-based. The method, then:
C.1.4. Myosin Light Chain Phosphorylation assay
Rat smooth muscle cell line A7r5 is used. The endogenous expression of ROCK results in a constitutive phosphorylation of the regulatory myosin light chain at T18/S19. A7r5 cells were plated in DMEM supplemented with 10% FCS in multiwall cell culture plates. After serum starvation overnight, cells were incubated with compounds in serum-free medium.
Quantification of MLC-T18/S19 phosphorylation is assessed in 96 well-plates via ELISA using a phspho-MLC-T18/S19 specific antibody and a secondary detection antibody. Raw data were converted into percent substrate phosphorylation relative to high controls, which were set to 100%. IC50 values were determined using GraphPad Prism 5.01 software using a nonlinear regression curve fit with variable hill slope.
A general note: ELISA stands for enzyme-linked immunosorbent assay.

Data set [2] in a line: Stability assay in human plasma. It is filed as in vitro ADME. As to conditions: 1 μM compound in human plasma, LC-MS/MS; read-out: t½ human plasma. The method, then:
C.2.1. Stability Assay in Human and/or Rat Plasma
Compounds are incubated at a concentration of 1 μM in rat (mice, dog, monkey, minipig or rabbit) or human plasma. Samples are taken at fixed time points and the remnant of compound is determined by LC-MS/MS after protein precipitation. Half life is expressed in minutes.

Data set [3] is described as follows: Stability towards drug metabolizing enzymes in lung S9. It is filed as in vitro ADME. The following applies: human, lung S9 (from smokers) with NADPH, UDPGA, PAPS and GSH, read-out: t½ human lung S9. The method, then:
C.2.2. Stability Towards Drug Metabolizing Enzymes in Lung S9
A 1 μM solution of the ROCK inhibitors is incubated with a reaction mixture containing lung S9 (from smokers) as well as the cofactors NADPH, UDPGA, PAPS and GSH. Samples are collected at 0, 15, 30 and 60 minutes post incubation. Negative control samples incubated with ROCK inhibitors and S9 fraction in the absence of cofactors are run in parallel. By using LC-MS/MS analysis, the percent of ROCK compounds remaining at each time point, the metabolic half-life of the ROCK compounds (expressed in minutes) and the metabolic half-life of the control compounds are determined.

Data set [4] can be described thus: Stability assay in rabbit aqueous humor. It is filed as in vitro ADME. As to conditions: 1 μM in rabbit aqueous humor, LC-MS/MS; read-out: t½ Rabbit AH. The method, then: C.2.3. Stability Assay in Rabbit Aqueous Humor
Compounds are incubated at a concentration of 1 μM in rabbit aqueous humor (AH). Samples are taken at fixed time points and the remnant of compound is determined by LC-MS/MS after protein precipitation.

pIC50: −log10 of the molar value.

Chain of ROCK II (O75116 whole entry): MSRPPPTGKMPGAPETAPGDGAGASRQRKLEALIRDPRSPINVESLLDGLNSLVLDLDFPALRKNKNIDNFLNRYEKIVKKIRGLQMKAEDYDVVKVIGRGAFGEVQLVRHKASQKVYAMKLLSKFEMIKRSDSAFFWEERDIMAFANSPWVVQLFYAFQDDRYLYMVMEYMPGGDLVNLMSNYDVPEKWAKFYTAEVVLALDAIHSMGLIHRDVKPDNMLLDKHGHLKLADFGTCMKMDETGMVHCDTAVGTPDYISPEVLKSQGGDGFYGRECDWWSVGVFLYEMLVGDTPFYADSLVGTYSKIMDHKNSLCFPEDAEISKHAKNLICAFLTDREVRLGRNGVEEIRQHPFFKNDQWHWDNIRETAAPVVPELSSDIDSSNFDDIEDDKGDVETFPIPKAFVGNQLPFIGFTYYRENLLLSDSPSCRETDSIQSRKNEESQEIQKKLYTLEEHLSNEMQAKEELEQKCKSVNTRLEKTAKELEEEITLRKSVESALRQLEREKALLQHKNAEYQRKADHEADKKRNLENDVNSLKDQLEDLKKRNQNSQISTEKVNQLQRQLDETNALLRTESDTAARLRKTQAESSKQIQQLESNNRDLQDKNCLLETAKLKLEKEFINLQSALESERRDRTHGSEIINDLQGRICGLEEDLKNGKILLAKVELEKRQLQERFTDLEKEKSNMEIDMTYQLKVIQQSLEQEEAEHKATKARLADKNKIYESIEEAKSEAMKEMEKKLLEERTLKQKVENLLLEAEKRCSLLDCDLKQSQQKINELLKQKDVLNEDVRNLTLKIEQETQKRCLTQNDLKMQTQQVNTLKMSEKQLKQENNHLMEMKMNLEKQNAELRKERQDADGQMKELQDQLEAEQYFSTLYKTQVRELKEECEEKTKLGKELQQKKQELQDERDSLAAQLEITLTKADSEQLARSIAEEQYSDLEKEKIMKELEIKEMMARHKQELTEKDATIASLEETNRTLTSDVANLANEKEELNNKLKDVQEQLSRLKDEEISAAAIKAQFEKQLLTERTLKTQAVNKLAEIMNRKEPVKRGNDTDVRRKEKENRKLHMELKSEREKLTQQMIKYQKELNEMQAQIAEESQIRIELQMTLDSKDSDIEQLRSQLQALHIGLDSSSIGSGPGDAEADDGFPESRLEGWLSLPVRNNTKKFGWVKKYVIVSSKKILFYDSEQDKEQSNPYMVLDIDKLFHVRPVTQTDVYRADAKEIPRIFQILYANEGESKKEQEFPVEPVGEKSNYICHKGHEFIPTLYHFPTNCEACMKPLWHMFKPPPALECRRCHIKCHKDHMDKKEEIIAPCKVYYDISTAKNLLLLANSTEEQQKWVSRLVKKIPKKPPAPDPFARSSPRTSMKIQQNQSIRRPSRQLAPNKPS

Regarding `COC(=O)c1cccc(NC(=O)c2cccc(-c3cc(C(=O)Nc4ccncc4F)ccc3CN)c2)c1` [Compound 1], the pIC50 against ROCK II is over 8.00; in data set [1], over 6.70. The half-life at 1 μM in data set [2] was under 0.0833 h; in data set [3], over 0.5 h; in data set [4], over 1 h.
Consider `COC(=O)Cc1cccc(NC(=O)c2cccc(-c3cc(C(=O)Nc4ccncc4F)ccc3CN)c2)c1` [Compound 2], for which the results for the pIC50 (against ROCK II; in data set [1]) were over 8.00 and over 6.70, respectively.
The like results for `COC(=O)c1ccc(NC(=O)c2cccc(-c3cc(C(=O)Nc4ccncc4F)ccc3CN)c2)cc1` [Compound 3] were, in that order, over 8.00 and over 6.70.
The matching figures for `COC(=O)Cc1ccc(NC(=O)c2cccc(-c3cc(C(=O)Nc4ccncc4F)ccc3CN)c2)cc1` [Compound 4]: over 8.00 and over 6.70.
At ROCK II, `NCc1ccc(C(=O)Nc2ccncc2F)cc1-c1cccc(NC(=O)c2ccc3c(c2)COC3=O)c1` [Compound 5] had a pIC50 of over 8.00. The half-life at 1 μM in data set [2] is under 1 h.
Regarding `COC(=O)c1ccc(F)c(NC(=O)c2cccc(-c3cc(C(=O)Nc4ccncc4F)ccc3CN)c2)c1` [Compound 6], the pIC50 at ROCK II is over 8.00; in data set [1] it was over 6.70. Further, the half-life at 1 μM in data set [2] was under 1 h.
For `COC(=O)c1cncc(NC(=O)c2cccc(-c3cc(C(=O)Nc4ccncc4F)ccc3CN)c2)c1` [Compound 7], at ROCK II, the pIC50 was over 8.00.
In the case of `CCCOC(=O)c1cccc(NC(=O)c2cccc(-c3cc(C(=O)Nc4ccncc4F)ccc3CN)c2)c1` [Compound 8], the pIC50 is over 8.00 on ROCK II and over 6.70 in data set [1]. In addition, the figures for the half-life at 1 μM in data set [2] and in data set [4] were under 0.0833 h and over 1 h, respectively.
`COC(=O)c1cc(F)cc(NC(=O)c2cccc(-c3cc(C(=O)Nc4ccncc4F)ccc3CN)c2)c1` [Compound 9]: on ROCK II, the pIC50 is over 8.00.
`CCCOC(=O)c1cc(F)cc(NC(=O)c2cccc(-c3cc(C(=O)Nc4ccncc4F)ccc3CN)c2)c1` [Compound 10]: the pIC50 against ROCK II is over 7.00; in data set [1] it was over 6.70.
For `COC(=O)c1csc(NC(=O)c2cccc(-c3cc(C(=O)Nc4ccncc4F)ccc3CN)c2)n1` [Compound 11], at ROCK II, the pIC50 was over 8.00.
Regarding `CCCOC(=O)c1ccc(F)c(NC(=O)c2cccc(-c3cc(C(=O)Nc4ccncc4F)ccc3CN)c2)c1` [Compound 12], the pIC50 against ROCK II is over 8.00; in data set [1] it was over 6.70.
Regarding `COC(=O)c1ccc(NC(=O)c2cccc(-c3cc(C(=O)Nc4ccncc4F)ccc3CN)c2)cc1C` [Compound 13], the pIC50 against ROCK II is over 8.00.
Still for that read-out and setting: the value for `CCOC(=O)c1nnc(NC(=O)c2cccc(-c3cc(C(=O)Nc4ccncc4F)ccc3CN)c2)o1` [Compound 14] was over 8.00; that for `COC(=O)c1ccc(NC(=O)c2cccc(-c3cc(C(=O)Nc4ccncc4F)ccc3CN)c2)o1` [Compound 15] was over 8.00.
Still for that read-out and setting: the same measure for `COC(=O)c1ccc(C(=O)Nc2cccc(-c3cc(C(=O)Nc4ccncc4F)ccc3CN)c2)cc1` [Compound 16]: over 8.00.
As for `COC(=O)c1cccc(C(=O)Nc2cccc(-c3cc(C(=O)Nc4ccncc4F)ccc3CN)c2)c1` [Compound 17], the pIC50 at ROCK II is over 8.00; in data set [1] it was over 6.70.
On ROCK II, `COC(=O)c1ccc(C(=O)Nc2cccc(-c3cc(C(=O)Nc4ccncc4F)ccc3CN)c2)nc1` [Compound 18] gave a pIC50 of over 8.00.
Still for that read-out and setting: the value for `CCCOC(=O)Cc1cccc(NC(=O)c2cccc(-c3cc(C(=O)Nc4ccncc4F)ccc3CN)c2)c1` [Compound 19] was over 8.00.
Same read-out and setting: the same measure for `COC(=O)c1cc(NC(=O)c2cccc(-c3cc(C(=O)Nc4ccncc4F)ccc3CN)c2)ccc1C` [Compound 20]: over 8.00; for `CCCOC(=O)c1ccc(NC(=O)c2cccc(-c3cc(C(=O)Nc4ccncc4F)ccc3CN)c2)cc1C` [Compound 21]: over 8.00; for `CCCOC(=O)c1cc(NC(=O)c2cccc(-c3cc(C(=O)Nc4ccncc4F)ccc3CN)c2)ccc1C` [Compound 22]: over 8.00.
